Assay results reported in paper PMC6149949, “Synthesis and Evaluation of Thiochroman-4-One Derivatives as Potential Leishmanicidal Agents” (Molecules : A Journal of Synthetic Chemistry and Natural …, 2017).

How the values were obtained:
[1] = tested on: intracellular amastigotes of Leishmania panamensis (MHOM/CO/87/UA140-EGFP strain); assay: In vitro antileishmanial activity on intracellular amastigotes (GFP, flow cytometry); assay type: cell-based; conditions: for EC50: Leishmania panamensis, U-937, 72 h, intracellular amastigotes of L. panamensis in U-937 cells, 72 h, mean ± SD; for SI (index of selectivity, IS = LC50/EC50): LC50 U-937 / EC50 L. panamensis amastigotes
Experimental: Antileishmanial activity of compounds was determined according to the ability of the compound to reduce the infection by L. panamensis parasites. For this, the antileishmanial activity was tested on intracellular amastigotes of L. panamensis transfected with the green fluorescent protein gene (MHOM/CO/87/UA140-EGFP strain). Briefly, U-937 human cells at a density of 3 × 10^5 cells/mL in RPMI 1640 and 0.1 μg/mL of PMA (phorbol-12-myristate-13-acetate) were dispensed on 24-wells microplate and then infected with stationary phase growing L. panamensis promastigotes in 15:1 parasites per cell ratio. Plates were incubated at 34 °C and 5% CO2 for 3 h and then cells were washed twice with phosphate buffer solution (PBS) to eliminate not internalized parasites. Fresh RPMI-1640 was added into each well (1 mL) and plates were incubated again. After 24 h of infection, the RPMI-1640 medium was replaced by fresh culture medium containing each compound at four serial dilutions (50, 12.5, 3.125 and 0.78 μg/mL) and plates were then incubated at 37 °C and 5% CO2 during 72 h, then, cells were removed from the bottom plate with 100 μL of EDTA/Trypsin (250 mg) solution. The cells were centrifuged at 1100 rpm during 10 min at 4 °C, the supernatant was discarded and cells were washed with 1 mL of cold PBS and centrifuged at 1100 rpm for 10 min at 4 °C. Cells were washed two times employing PBS, as previously, and after the last wash, the supernatant was discarded and cells were suspended in 500 μL of PBS.
Cells were analyzed by flow cytometry employing a flow cytometer (cytomics FC 500MPL, Beckman Coulter. Pasadena, CA, USA) reading at 488 nm (exciting) and 525 nm (emitting) over an argon laser and counting 10,000 events. Infected cells were determined according the events for green fluorescence (parasites). All determinations for each compound and standard drug were carried out by triplicate, in two experiments. Infected cells exposed to control drug (amphotericin B) were used as control for antileishmanial activity (positive control) while infected cells incubated in absence of any compound or drug were used as control for infection (negative control). Nonspecific fluorescence was corrected by subtracting fluorescence of unstained cells. Determinations were done by triplicate in at least two independent experiments.
Antileishmanial activity was determined according reduction of percentage of fluorescent parasites determined according to the median fluorescence intensity (MFI), obtained for each experimental condition by cytometry. The parasite values for each concentration of compound were calculated by Equation (3), where the % of parasites in the control well, corresponds to 100% of parasites. % parasites = (MFI exposed parasites/MFI unexposed parasites) × 100(3)
Then, inhibition percentage was calculated with Equation (4):% inhibition of parasites = 100 − (% parasites)(4)
Results of antileishmanial activities were expressed as the median effective concentrations (EC50) measured by Probit method.

in vitro = conditions: human
Experimental: Cytotoxicity of the compounds was evaluated over human monocytes (U-937 ATCC CRL-1593.2) in exponential growing phase and, adjusted at 1 × 10^5 cells/mL in RPMI-1640 enriched with 10% fetal bovine serum (FBS). One hundred microliters of cell suspension were dispensed in each well of a 96-wells microplate and then, 100 μL of each compound or standard drug (amphotericin B) at four serial dilution concentrations (200, 50, 12.5 and 3.125 μg/mL) were added dissolved in pbs with 0.5% DMSO. Cell exposed to compounds or standard drugs were incubated 72 h at 37 °C and 5% of CO2. Cytotoxic activity of each compound was determined according to the effect on the cell viability by the MTT microenzymatic method in which 3-(4,5-dimethylthiazol-2-yl)- 2,5-diphenyltetrazolium bromide is reduced to a purple product named formazan by mitochondrial enzyme succinate dehydrogenase. Thus, 10 μL/well of MTT solution (5 mg/mL) were added to each well of exposed and unexposed cells, and plates were incubated at 37 °C, 5% CO2 during 3 h. The reaction was stopped by adding 100 μL/well of isopropanol with 50% and 10% of SDS (sodium dodecyl sulfate). The concentration of formazan was determined spectrophotometrically at 570 nm (Varioskan Flash Multimode Reader, Thermo Scientific, Waltham, MA, USA) and intensity of color (absorbance) was registered as O.D. Cells exposed to control drug (amphotericin B) were used as control for toxicity (positive control) while cell incubated in absence of any compound or drug were used as control for viability (negative control). Non-specific absorbance was corrected by subtracting absorbance (O.D) of the blank. Determinations were done by triplicate in at least two independent experiments.
Cytotoxicity was determined according to viability and mortality percentages obtained for each experimental condition (synthetized compounds, amphotericin B and culture medium). Results were expressed as the mean lethal concentrations (LC50), concentration necessary to kill 50% of cells, calculated by the parametric method of linear regression that permits doses-response analysis (Probit analysis).
Initially, viability percentages were calculated by Equation (1), where the O.D of control well, corresponds to 100% of viability. % viability = (O.D exposed cells/O.D unexposed cells) × 100(1)
Then, the percentage of cell growth inhibition was calculated using Equation (2):% inhibition = 100 − (% Viability)(2)
The toxicity was defined according to LC50 values, using the follow scale: Toxic; LC50 < 100 μM; moderately toxic; LC50 > 100 μM and <200 μM and potentially nontoxic; LC50 > 200 μM.

| SMILES | EC50 [1] [µM] | CC50 at 72 h (in vitro) [µM] | SI (index of selectivity, IS = LC50/EC50) [1] |
| --- | --- | --- | --- |
| C[C@@H]1[C@H](O)[C@@H](C)/C=C/C=C/C=C/C=C/C=C/C=C/C=C/[C@H](O[C@@H]2O[C@H](C)[C@@H](O)[C@H](N)[C@@H]2O)C[C@@H]2O[C@](O)(C[C@@H](O)C[C@@H](O)[C@H](O)CC[C@@H](O)C[C@@H](O)CC(=O)O[C@H]1C)C[C@H](O)[C@H]2C(=O)O [Amphotericin B, reference compound] | 0.32 | 39.6 ± 8.7 |  |
| CC1CC(=O)c2ccccc2S1 (centres unmarked) [Compound 1a, 2-Methylthiochroman-4-one] |  | 604 ± 86.4 | 1.36 |
| CC1CC(=O)c2cc(F)ccc2S1 (centres unmarked) [Compound 1b, 6-Fluoro-2-methylthiochroman-4-one] |  | 579 ± 59.1 | 1.37 |
| O=C1CCSc2ccc(F)cc21 [Compound 1c, 6-Fluorothiochroman-4-one] | > 110 | 705 | <6.42 |
| O=C1CCSc2c1ccc1c2C(=O)CCS1 [Compound 1d, 2,3,8,9-Tetrahydro-4H,10H-thiopyran[2,3-f]thiochromene-4,10-dione] | > 80 | 279 ± 36.4 | <3.49 |
| O=C1CC(C(=O)O)Sc2ccccc21 (centres unmarked) [Compound 1e, 4-Oxothiochroman-2-carboxylic acid] | > 96.1 | 143 ± 16.8 | <1.48 |
| O=C1CCSc2ccc([N+](=O)[O-])cc21 [Compound 1f, 6-Nitrothiochroman-4-one] | > 95.6 | > 200 |  |
| Nc1ccc2c(c1)C(=O)CCS2 [Compound 1g, 6-Aminothiochroman-4-one] | > 112 | 118 ± 10.5 | <1.100 |
| O=C1CC(c2ccccc2)Sc2ccccc21 (centres unmarked) [Compound 1h, 2-Phenylthiochroman-4-one] | 44.1 ± 0.9 | > 41.6 |  |
| O=C1CC(c2ccc(C(F)(F)F)cc2)Sc2ccccc21 (centres unmarked) [Compound 1i, 2-(4-(Trifluoromethyl)-phenyl)-thiochroman-4-one] | 61.4 ± 1.62 | > 649 | >10.56 |
| O=C1CC(c2ccc(C(F)(F)F)cc2)Sc2ccc(F)cc21 (centres unmarked) [Compound 1j, 6-Fluoro-2-(4-(trifluoromethyl)-phenyl)thiochroman-4-one] | 80.3 ± 12.1 | 129 ± 3.45 | 1.60 |
| O=C1CC(c2ccc(Cl)cc2)Sc2ccccc21 (centres unmarked) [Compound 1k, 2-(4-Chlorophenyl)-thiochroman-4-one] | > 72.8 | 64.4 ± 3.98 | <0.90 |
| O=C1CC(c2ccc(F)cc2)Sc2ccccc21 (centres unmarked) [Compound 1l, 2-(4-Fluorophenyl)-thiochroman-4-one] | 93.6 ± 11 | 72.9 ± 9.87 | 0.78 |
| O=C1CC(c2ccc([N+](=O)[O-])cc2)Sc2ccccc21 (centres unmarked) [Compound 1m, 2-(4-Nitrophenyl)-thiochroman-4-one] | > 70.1 | > 701 |  |
| O=c1ccsc2ccc([N+](=O)[O-])cc12 [Compound 2f, 6-Nitro-4H-thiochromen-4-one] | 36.8 ± 1.74 | > 965 | >26.26 |
| O=c1cc(-c2ccc(C(F)(F)F)cc2)sc2ccccc12 [Compound 2i, 2-(4-(Trifluoromethyl)-phenyl)-4H-thiochromen-4-one] | 161 ± 20.5 | 522 ± 314 | 3.24 |
| O=c1cc(-c2ccc(C(F)(F)F)cc2)sc2ccc(F)cc12 [Compound 2j, 6-Fluoro-2-(4-(trifluoromethyl)-phenyl)-4H-thiochromen-4-one] | 52.3 ± 8.92 | 51.4 ± 11.6 | 0.98 |
| O=c1cc(-c2ccc(Cl)cc2)sc2ccccc12 [Compound 2k, 2-(4-Chlorophenyl)-4H-thiochromen-4-one] | > 73.3 | > 733 |  |
| O=c1cc(-c2ccc(F)cc2)sc2ccccc12 [Compound 2l, 2-(4-Fluorophenyl)-4H-thiochromen-4-one] | > 78 | 503 ± 382 | <6.45 |
| O=c1cc(-c2ccc([N+](=O)[O-])cc2)sc2ccccc12 [Compound 2m, 2-(4-nitrophenyl)-4H-thiochromen-4-one] | > 70.6 | > 706 |  |
| CC1CC(=O)c2ccccc2S1(=O)=O (centres unmarked) [Compound 3a, 2-Methylthiochroman-4-one 1,1-dioxide] | > 95.2 | > 825 |  |
| CC1CC(=O)c2cc(F)ccc2S1(=O)=O (centres unmarked) [Compound 3b, 6-Fluoro-2-methylthiochroman-4-one 1,1-dioxide] | > 87.7 | > 876 |  |
| O=C1CCS(=O)(=O)c2ccc(F)cc21 [Compound 3c, 6-Fluorothiochroman-4-one 1,1-dioxide] | > 93.5 | > 934 |  |
| O=C1CC(c2ccccc2)S(=O)(=O)c2ccccc21 (centres unmarked) [Compound 3h, 2-Phenylthiochroman-4-one 1,1-dioxide] | 217 ± 34.9 | 529 ± 52.9 |  |
| O=C1CC(c2ccc(C(F)(F)F)cc2)S(=O)(=O)c2ccccc21 (centres unmarked) [Compound 3i, 2-(4-(Trifluoromethyl)-phenyl)-thiochroman-4-one 1,1-dioxide] | 84.8 ± 3.23 | 62.9 ± 10.3 | 0.74 |
| O=C1CC(c2ccc(C(F)(F)F)cc2)S(=O)(=O)c2ccc(F)cc21 (centres unmarked) [Compound 3j, 6-Fluoro-2-(4-(trifluoromethyl)-phenyl)-thiochroman-4-one 1,1-dioxide] | 79.1 ± 8.98 | > 558 | >7.06 |
| O=C1CC(c2ccc(Cl)cc2)S(=O)(=O)c2ccccc21 (centres unmarked) [Compound 3k, 2-(4-Chlorophenyl)-thiochroman-4-one 1,1-dioxide] | 137.1 ± 1.29 | > 652 | >4.76 |
| O=C1CC(c2ccc(F)cc2)S(=O)(=O)c2ccccc21 (centres unmarked) [Compound 3l, 2-(4-Fluorophenyl)thiochroman-4-one 1,1-dioxide] | > 68.9 | 689 |  |
| O=C1CC(c2ccc([N+](=O)[O-])cc2)S(=O)(=O)c2ccccc21 (centres unmarked) [Compound 3m, 2-(4-Nitrophenyl)-thiochroman-4-one 1,1-dioxide] | > 63 | > 630 |  |
| O=C1C=C(c2ccc(C(F)(F)F)cc2)S(=O)(=O)c2ccc(F)cc21 [Compound 4j, 6-Fluoro-2-(4-(trifluoromethyl)-phenyl)-4H-thiochromen-4-one 1,1-dioxide] |  | > 561 |  |
